What was measured:
[1] = tested on: HEp-2; test: Compound was evaluated for cytotoxicity against H.Ep.-2 cells, and concentration required to inhibit the growth of treated cells to 50% of untreated control.; format: functional, cell-based; settings: Homo sapiens
[2] = tested on: L1210 (1565); test: (§1) Compound was evaluated for cytotoxicity against L-1210 (AK-) cells, and concentration required to inhibit the growth of treated cells to 50% of untreated control.; format: functional, cell-based; settings: Mus musculus
[3] = tested on: L1210 (1565); test: as §1; format: functional, cell-based; settings: Mus musculus; remark: listed apart in the source
[4] = tested on: L1210 (1565); test: Compound was evaluated for cytotoxicity against L-1210 cells, and concentration required to inhibit the growth of treated cells to 50% of untreated control.; format: functional, cell-based; settings: Mus musculus
[5] = tested on: HEp-2; test: Compound was evaluated for cytotoxicity against H.Ep.-2 (AK-) cells and concentration required to inhibit the growth of treated cells to 50% of untreated control; format: functional, cell-based; settings: Homo sapiens
[6] = tested on: S-adenosyl-L-homocysteinase (Mus musculus); test: Inhibition of S-adenosyl-L-homocysteinase from L-1210 cells
[7] = tested on: HEp-2; test: Compound was evaluated for cytotoxicity against H.Ep.-2 cells and concentration required to inhibit the growth of treated cells to 50% of untreated control was reported; format: functional, cell-based; settings: Homo sapiens

Nc1nccc2c1ncn2[C@@H]1O[C@H](CO)[C@@H](O)[C@H]1O
IC50 [1]: 20 µM

Nc1nccc2c1ncn2[C@@H]1C[C@H](CO)[C@H](O)C1O (stereo not given in full)
IC50 [2]: 1 µM
IC50 [1]: 0.6 µM
IC50 [3]: 1 µM
IC50 [4]: 4 µM

Nc1ncnc2c1ccn2[C@@H]1O[C@H](CO)[C@@H](O)[C@H]1O [TUBERCIDIN]
IC50 [1]: 0.002 µM
IC50 [5]: > 3 µM

Nc1ncnc2c1ncn2[C@@H]1O[C@H](CO)[C@@H](O)[C@H]1O [ADENOSINE]
IC50 [1]: 0.7 µM
IC50 [5]: 20 µM

Nc1ncnc2c1ccn2[C@@H]1C[C@H](CO)[C@H](O)C1O (stereo not given in full)
Ki [6]: 44 µM
IC50 [2]: > 40 µM
IC50 [1]: 1.4 µM
IC50 [4]: 4 µM

Nc1ncnc2[nH]ccc12
IC50 [1]: > 70 µM

Nc1[nH]ccc2ncnc1-2
IC50 [7]: 7 µM
